Results reported in patent publication US20210341496A1, “Systems and Methods for Detecting or Monitoring Insulin” (The Florida State University Research Foundation, Inc., priority 2020, published 2021).

System: murine islets
Test: Synchronization of GSIS from grouped islets by periodic CCh pulses
Format: cell-based
Conditions: 5 islets, constant 11 mM glucose, 30 s every 5 min
Method: CCh, an M3R agonist, synchronizes glucose-induced islet activity as measured by synchronized oscillations of [Ca^2+]i levels. Because no recording of insulin release has been reported after delivery of CCh pulses, synchronized hormone secretion had not previously been verified. Using the newly-developed anisotropy method, it was tested whether GSIS from grouped islets can be entrained during periodic application of CCh.
For this experiment, reagent reservoirs connected to inlets 1 and 2 contained 11 mM glucose and 10 μM CCh in 11 mM glucose, respectively. A group of 5 islets were loaded into the islet chamber that had been filled with 11 mM glucose. After sealing the chamber, islets were continuously perfused with constant 11 mM glucose from inlet 1. CCh pulses were generated by switching the flow from inlet 1 to inlet 2. Pulse profiles consisted of 5 pulses (denoted by ‘x’ in FIG. 10A and FIG. 10B) each delivered for 30 s every 5 min. Considering broadening of each pulse (FIG. 3C), islets were exposed to an effective [CCh] of 4.7 μM.
In FIG. 10A and FIG. 10B, the glucose level remained constant at 11 mM. In the islet chamber during each experiment were 5 islets. In FIG. 10A, GSIS was synchronized by a train of 5 CCh pulses. Each 30 second pulse, ‘x’, was delivered every 5 minutes from 5 to 25 minutes. Numbered insulin peaks highlight oscillations likely stimulated by a CCh pulse. […]

In the case of `C[N+](C)(C)CCOC(N)=O` [CCh, carbachol], the “insulin spikes after CCh pulses, average of final 3 spikes” value (5 pulses of 10 μM CCh (effective 4.7 μM)) is reported as 78±12 pg min^−1 islet^−1 and the “synchronization of GSIS” value (train of 5 CCh pulses) is reported as “synchronized”.
